Reference: ChEMBL document CHEMBL3352445, “Inhibition of activated STAT5 in Bcr/Abl expressing leukemia cells with new pimozide derivatives” (Bioorg Med Chem Lett, 2014)
The source made the active and inactive calls. No cut-off for these calls is given here.

What was measured:
K562 [1] = test: Induction of apoptosis in human K562 cells by annexin V/propidium iodide staining-based flow cytometric analysis; assay type: functional, cell-based
K562 [2] = test: Cytotoxicity against human K562 cells after 48 hrs by trypan blue dye exclusion test; assay type: functional, cell-based; conditions: K562, 48 h
K562 [3] = test: Cell cycle arrest in human K562 cells assessed as accumulation at G1 phase after 24 hrs using propidium iodide staining at 10 uM by flow cytometry (reference value: 39.05%); assay type: functional
K562 [4] = test: Cell cycle arrest in human K562 cells assessed as accumulation at G2-M phase after 24 hrs using propidium iodide staining at 10 uM by flow cytometry (reference value: 15.01%); assay type: functional
K562 [5] = test: Cell cycle arrest in human K562 cells assessed as accumulation at S phase after 24 hrs using propidium iodide staining at 10 uM by flow cytometry (reference value: 45.94%); assay type: functional
K562 [6] = test: Reduction in pSTAT5 expression level in human K562 cells at 10 uM after 24 hrs by FACScan flow cytometry; assay type: functional, cell-based
K562 [7] = test: Cell cycle arrest in human K562 cells assessed as accumulation at S phase after 24 hrs using propidium iodide staining at 5 uM by flow cytometry (reference value: 45.94%); assay type: functional
K562 [8] = test: Ratio of Pimozide to compound for pSTAT5 expression level in human K562 cells; assay type: functional
K562 [9] = test: Ratio of Pimozide AC50 to compound AC50 for human K562 cells by annexin V/propidium iodide staining-based flow cytometric analysis; assay type: functional
K562 [10] = test: Induction of pSTAT5 expression level in human K562 cells at 10 uM after 24 hrs by FACScan flow cytometry; assay type: functional, cell-based
K562 [11] = test: Ratio of Pimozide IC50 to compound IC50 for human K562 cells by trypan blue dye exclusion test; assay type: functional
K562 [12] = test: Cell cycle arrest in human K562 cells assessed as accumulation at G2-M phase after 24 hrs using propidium iodide staining at 5 uM by flow cytometry (reference value: 15.01%); assay type: functional
K562 [13] = test: Cell cycle arrest in human K562 cells assessed as accumulation at G1 phase after 24 hrs using propidium iodide staining at 5 uM by flow cytometry (reference value: 39.05%); assay type: functional
K562 [14] = test: Induction of pSTAT5 expression level in human K562 cells at 15 uM after 24 hrs by FACScan flow cytometry; assay type: functional, cell-based
K562 [15] = test: Effect on pSTAT5 expression level in human K562 cells at 30 uM after 24 hrs by FACScan flow cytometry; assay type: functional, cell-based
K562 [16] = test: Cell cycle arrest in human K562 cells assessed as accumulation at S phase after 24 hrs using propidium iodide staining at 40 uM by flow cytometry (reference value: 45.94%); assay type: functional
K562 [17] = test: Cell cycle arrest in human K562 cells assessed as accumulation at G2-M phase after 24 hrs using propidium iodide staining at 40 uM by flow cytometry (reference value: 15.01%); assay type: functional
K562 [18] = test: Cell cycle arrest in human K562 cells assessed as accumulation at G1 phase after 24 hrs using propidium iodide staining at 40 uM by flow cytometry (reference value: 39.05%); assay type: functional
K562 [19] = test: Cell cycle arrest in human K562 cells assessed as accumulation at S phase after 24 hrs using propidium iodide staining at 20 uM by flow cytometry (reference value: 45.94%); assay type: functional
K562 [20] = test: Cell cycle arrest in human K562 cells assessed as accumulation at G2-M phase after 24 hrs using propidium iodide staining at 20 uM by flow cytometry (reference value: 15.01%); assay type: functional
K562 [21] = test: Effect on pSTAT5 expression level in human K562 cells at 20 uM after 24 hrs by FACScan flow cytometry; assay type: functional, cell-based
K562 [22] = test: Cell cycle arrest in human K562 cells assessed as accumulation at G1 phase after 24 hrs using propidium iodide staining at 20 uM by flow cytometry (reference value: 39.05%); assay type: functional
K562 [23] = test: Cell cycle arrest in human K562 cells assessed as accumulation at S phase after 24 hrs using propidium iodide staining at 30 uM by flow cytometry (reference value: 45.94%); assay type: functional
K562 [24] = test: Cell cycle arrest in human K562 cells assessed as accumulation at G1 phase after 24 hrs using propidium iodide staining at 30 uM by flow cytometry (reference value: 39.05%); assay type: functional
K562 [25] = test: Cell cycle arrest in human K562 cells assessed as accumulation at G2-M phase after 24 hrs using propidium iodide staining at 30 uM by flow cytometry (reference value: 15.01%); assay type: functional
K562 [26] = test: Cell cycle arrest in human K562 cells assessed as accumulation at S phase after 24 hrs using propidium iodide staining at 7 uM by flow cytometry (reference value: 45.94%); assay type: functional
K562 [27] = test: Cell cycle arrest in human K562 cells assessed as accumulation at G2-M phase after 24 hrs using propidium iodide staining at 7 uM by flow cytometry (reference value: 15.01%); assay type: functional
K562 [28] = test: Cell cycle arrest in human K562 cells assessed as accumulation at G1 phase after 24 hrs using propidium iodide staining at 7 uM by flow cytometry (reference value: 39.05%); assay type: functional
K562 [29] = test: Effect on pSTAT5 expression level in human K562 cells at 10 uM after 24 hrs by FACScan flow cytometry; assay type: functional, cell-based

SMILES: CC(=O)N1CCC(n2c(=O)[nH]c3ccccc32)CC1
- AC50 (K562 [1]): > 50 µM
- IC50 (K562 [2]): > 50 µM

SMILES: O=c1[nH]c2ccccc2n1C1CCN(CCCC(c2ccc(F)cc2)c2ccc(F)cc2)CC1 [PIMOZIDE]
- Activity (K562 [3]): 51.28%
- Activity (K562 [4]): 10.31%
- AC50 (K562 [1]): 10 µM
- Activity (K562 [5]): 38.41%
- IC50 (K562 [2]): 5 µM
- Activity (K562 [6]): Dose-dependent effect

SMILES: C=CC(=O)N1CCC(n2c(=O)[nH]c3ccccc32)CC1
- AC50 (K562 [1]): > 50 µM
- IC50 (K562 [2]): > 50 µM

SMILES: O=C(CI)N1CCC(n2c(=O)[nH]c3ccccc32)CC1
- Activity (K562 [7]): 39.06%
- Ratio IC50 (K562 [8]): 1.49
- Ratio IC50 (K562 [9]): 2
- AC50 (K562 [1]): 5 µM
- Activity (K562 [10]): Active
- IC50 (K562 [2]): 1.8 µM
- Ratio IC50 (K562 [11]): 2.7
- Activity (K562 [12]): 13.98%
- Activity (K562 [13]): 46.96%
- Activity (K562 [14]): Active

SMILES: O=C(Cc1ccccc1)N1CCC(n2c(=O)[nH]c3ccccc32)CC1
- AC50 (K562 [1]): > 50 µM
- IC50 (K562 [2]): > 50 µM

SMILES: COc1ccc(CC(=O)N2CCC(n3c(=O)[nH]c4ccccc43)CC2)cc1
- AC50 (K562 [1]): > 50 µM
- IC50 (K562 [2]): > 50 µM

SMILES: O=C(Cc1ccc([N+](=O)[O-])cc1)N1CCC(n2c(=O)[nH]c3ccccc32)CC1
- AC50 (K562 [1]): > 50 µM
- IC50 (K562 [2]): 35 µM
- Activity (K562 [15]): inactive
- Activity (K562 [16]): 62.21%
- Activity (K562 [17]): 6.07%
- Activity (K562 [18]): 31.72%

SMILES: O=C(CCC(c1ccc(F)cc1)c1ccc(F)cc1)N1CCC(n2c(=O)[nH]c3ccccc32)CC1
- AC50 (K562 [1]): > 50 µM
- IC50 (K562 [2]): > 50 µM

SMILES: O=C(CC=C(c1ccccc1)c1ccccc1)N1CCC(n2c(=O)[nH]c3ccccc32)CC1
- Activity (K562 [19]): 58.57%
- AC50 (K562 [1]): 18 µM
- Activity (K562 [20]): 7.33%
- Activity (K562 [21]): inactive
- Activity (K562 [22]): 34.1%
- IC50 (K562 [2]): 13 µM

SMILES: O=C(CC=C(c1ccc(F)cc1)c1ccc(F)cc1)N1CCC(n2c(=O)[nH]c3ccccc32)CC1
- Activity (K562 [23]): 46.64%
- Activity (K562 [24]): 47.2%
- AC50 (K562 [1]): 35 µM
- Activity (K562 [21]): inactive
- IC50 (K562 [2]): 18 µM
- Activity (K562 [25]): 6.16%

SMILES: O=C(Cc1cc2ccccc2[nH]1)N1CCC(n2c(=O)[nH]c3ccccc32)CC1
- AC50 (K562 [1]): > 50 µM
- IC50 (K562 [2]): > 50 µM

SMILES: N#CCC(=O)N1CCC(n2c(=O)[nH]c3ccccc32)CC1
- AC50 (K562 [1]): > 50 µM
- IC50 (K562 [2]): > 50 µM

SMILES: O=C(CCC(c1ccccc1)c1ccccc1)N1CCC(n2c(=O)[nH]c3ccccc32)CC1
- Activity (K562 [23]): 31.57%
- Activity (K562 [24]): 48.02%
- AC50 (K562 [1]): 19 µM
- Activity (K562 [21]): inactive
- IC50 (K562 [2]): 14 µM
- Activity (K562 [25]): 20.41%

SMILES: O=C(CBr)N1CCC(n2c(=O)[nH]c3ccccc32)CC1
- Activity (K562 [26]): 43.23%
- AC50 (K562 [1]): 4.8 µM
- Activity (K562 [10]): Active
- IC50 (K562 [2]): 2.4 µM
- Activity (K562 [27]): 9.22%
- Activity (K562 [14]): Active
- Activity (K562 [28]): 47.55%

SMILES: O=C(CCl)N1CCC(n2c(=O)[nH]c3ccccc32)CC1
- Activity (K562 [3]): 33.67%
- Activity (K562 [4]): 6.1%
- AC50 (K562 [1]): 14 µM
- Activity (K562 [5]): 60.23%
- IC50 (K562 [2]): 7.3 µM
- Activity (K562 [29]): inactive

SMILES: O=c1[nH]c2ccccc2n1C1CCNCC1
- AC50 (K562 [1]): > 50 µM
- IC50 (K562 [2]): > 50 µM

SMILES: CN1CCC(n2c(=O)[nH]c3ccccc32)CC1
- AC50 (K562 [1]): > 50 µM
- IC50 (K562 [2]): > 50 µM
